Drawing on ChEMBL document CHEMBL1152014, “Synthesis of thiophenol derivatives as inhibitors of human collagenase” (Bioorg Med Chem Lett, 1995), this text covers IC50 for 15 compounds.

This test addresses T1, Interstitial collagenase (Homo sapiens, UniProt P03956).
T1 sequence (P03956 whole entry): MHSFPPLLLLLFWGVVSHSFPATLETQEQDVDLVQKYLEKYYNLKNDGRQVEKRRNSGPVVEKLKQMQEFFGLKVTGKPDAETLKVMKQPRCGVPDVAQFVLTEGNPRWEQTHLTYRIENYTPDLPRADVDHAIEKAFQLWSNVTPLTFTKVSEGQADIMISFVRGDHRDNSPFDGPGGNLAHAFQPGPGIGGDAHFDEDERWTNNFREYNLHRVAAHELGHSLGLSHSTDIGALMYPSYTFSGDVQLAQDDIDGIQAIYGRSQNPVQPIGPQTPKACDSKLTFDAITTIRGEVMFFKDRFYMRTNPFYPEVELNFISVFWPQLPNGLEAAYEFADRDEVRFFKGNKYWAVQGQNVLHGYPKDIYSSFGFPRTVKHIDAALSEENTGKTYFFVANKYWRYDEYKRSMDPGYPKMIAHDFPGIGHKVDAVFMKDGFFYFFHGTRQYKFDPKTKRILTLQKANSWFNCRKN
The experiment in a line: Inhibitory activity was tested against human collagenase (MMP-1).

The term IC50 denotes the concentration needed to halve the response being measured. As to `CNC(=O)[C@H](Cc1ccccc1)NC(=O)[C@H](Cc1ccccc1S)CC(C)C`, the IC50 worked out at 0.03 µM. To `CNC(=O)[C@H](Cc1ccc(OC)cc1)NC(=O)C(Cc1ccc[nH]c1=S)CC(C)C` (stereo not given in full) belongs > 100 µM; to `CNC(=O)[C@H](Cc1ccc(OC)cc1)NC(=O)[C@@H](Cc1cccc(OC)c1S)CC(C)C`, 0.22 µM. On to `CNC(=O)[C@H](Cc1ccc(OC)cc1)NC(=O)[C@@H](Cc1ccccc1S)CC(C)C`, for which it took 0.34 µM to reach half-maximal inhibition (IC50).

On to `CNC(=O)[C@H](Cc1ccc(OC)cc1)NC(=O)[C@H](Cc1cccc(OC)c1S)CC(C)C`, for which inhibition was half-maximal at 0.16 µM (IC50).

Consider `CNC(=O)[C@H](Cc1ccccc1)NC(=O)[C@@H](Cc1ccccc1S)CC(C)C`, for which it took 1.1 µM to reach half-maximal inhibition (IC50). As for `CNC(=O)[C@H](Cc1ccc(OC)cc1)NC(=O)C(Cc1cccc(Cl)c1S)CC(C)C` (stereo not given in full), the figure is 0.33 µM. To `CNC(=O)[C@H](Cc1ccc(OC)cc1)NC(=O)[C@H](CC(C)C)[C@@H](S)c1ccccc1` belongs 0.27 µM; to `CNC(=O)[C@H](Cc1ccc(OC)cc1)NC(=O)C(Cc1ccc(OC)cc1S)CC(C)C` (stereo not given in full), 0.14 µM. To `CNC(=O)[C@H](Cc1ccc(OC)cc1)NC(=O)C(Cc1c(S)cccc1Cl)CC(C)C` (stereo not given in full) belongs 0.32 µM; to `CNC(=O)[C@H](Cc1ccc(OC)cc1)NC(=O)[C@H](CC(C)C)[C@H](C)S`, 0.017 µM. For the compound `CC(C)CC(Cc1ccccc1S)C(=O)NC1CCCCCCCCCCNC1=O` (stereo not given), the IC50 was > 100 µM.

`CNC(=O)[C@H](Cc1ccc(OC)cc1)NC(=O)[C@H](Cc1ccccc1S)CC(C)C` had an IC50 of 0.055 µM. As for `CNC(=O)[C@H](Cc1ccc(OC)cc1)NC(=O)C(Cc1ccc(Cl)cc1S)CC(C)C` (stereo not given in full), the figure is 0.23 µM; as for `CNC(=O)[C@H](Cc1ccc(OC)cc1)NC(=O)C(Cc1cccc(C(F)(F)F)c1S)CC(C)C` (stereo not given in full), 0.29 µM.
